In patent publication EP0900076B1, “TRANSDERMAL DEVICE” (priority 1996, dated 1997):

Tests used:
[1] = clinical; conditions: human, in vivo, 100 mg
[2] = 10 mg morphine, end of the 24 hour delivery, mean; cited from earlier work
[3] = Example 2: transdermal morphine after elective coronary surgery, amount absorbed from the drug cell; conditions: after 48 hours, of the initial 100 mg
[4] = postoperative monitoring during the test period
[5] = clinical; conditions: female, human, in vivo, 100 mg

| Structure (SMILES) | concentration at 0 h [1] | concentration at 1 h [1] | concentration at 2 h [1] | concentration at 3 h [1] | concentration at 3.5 h [1] | concentration at 4 h [1] | amount of drug in the reservoir was reduced [2] | morphine dose in the drug cell found to be absorbed [3] | oxygen saturation [4] | concentration at 1 h [5] | concentration at 32 h [5] | concentration at 48 h [5] |
| --- | --- | --- | --- | --- | --- | --- | --- | --- | --- | --- | --- | --- |
| CN1CC[C@]23c4c5ccc(O)c4O[C@H]2[C@@H](O)C=C[C@H]3[C@H]1C5 [Morphine acetate] | 0 nM | 53 nM | 112 nM | 115 nM | 154 nM | 162 nM | – | – | – | – | – | – |
| CN1CC[C@]23c4c5ccc(O)c4O[C@H]2[C@@H](O)C=C[C@H]3[C@H]1C5 [Morphine] | – | – | – | – | – | – | 75 per cent | 32 ± 6 mg | remained normal | 8 ± 3.5 nM | 9.8 ± 3.8 nM | 8.5 ± 1.7 nM |
